This is an account of results in US12649750B2, “Macrocyclic compounds, compositions, and methods of using thereof” (Sionna Therapeutics Inc., priority 2022, dated 2026).

For one assay, the target named is T1, NBD1 (Homo sapiens, UniProt P13569).
T1 construct: Purified recombinant NBD1 was produced using previously described methods; made in house
Put plainly: Aggregation analysis using differential static light scattering (DSLS), thermal stability of NBD1 (ΔTagg). Type of assay: binding. Particulars: ΔTagg versus DMSO control, NBD1 0.2 mg/ml. A digest of the protocol: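 Purified recombinant NBD1 at 0.2 mg/ml in 50 mM Tris-HCl, 150 mM NaCl, 5 mM MgCl2, 2 mM ATP, 2 mM DTT, pH 7.6, 1% glycerol, with compound, heated 1° C./min to 70° C. under light-scattering monitoring. Tagg taken at curve inflection; ΔTagg is compound Tagg minus mean DMSO-control Tagg, binned A (≤5° C.), B (>5-≤10° C.), C (>10-≤25° C.).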

In another assay the target is T2, CFTR (Homo sapiens, UniProt P13569, DEL508-508).
T2 construct: Primary human bronchial epithelial cells from a ΔF508 homozygous CF donor; host or cells: primary human bronchial epithelial cells (CF-HBE), ΔF508 homozygous donor
Put plainly: TECC24 AUC fold over DMSO @10 μM, CFTR-mediated transepithelial chloride transport in CF-HBE cells. Type of assay: cell-based. To be noted: test agent AUC divided by DMSO vehicle AUC, primary CF-HBE cells, ΔF508 homozygous donor, 48 hours incubation. On the procedure: Example 387. TECC24 AUC Fold Over DMSO @10 μM
The effects of a test agent on CFTR-mediated transepithelial chloride transport is measured using TECC24 recording analysis. Test agents are solubilized in DMSO. Solubilized test agents are mixed with incubation medium containing DMEM/F12, Ultroser G (2%; Crescent Chemical, catalog #67042), Hyclone Fetal Clone II (2%; GE Healthcare, catalog #SH30066.02), bovine brain extract (0.25%; Lonza, catalog #CC-4098), insulin (2.5 μg/mL), IL-13 (10 ng/mL), hydrocortisone (20 nM), transferrin (2.5 μg/mL), triiodothyronine (500 nM), ethanolamine (250 nM), epinephrine (1.5 μM), phosphoethanolamine (250 nM), and retinoic acid (10 nM). Primary human bronchial epithelial cells from a ΔF508 homozygous CF donor (CF-HBE cells; from University of North Carolina Cystic Fibrosis Tissue Procurement Center), grown on Transwell HTS 24-well cell culture inserts (Costar, catalog #3378), are exposed to test agents or controls dissolved in incubation medium. The CF-HBE cells are cultured at 36.5° C. for 48 hours before TECC24 recordings are performed in the presence or absence of test agent, a positive control or vehicle (DMSO).
Following incubation, the transwell cell culture inserts containing the test agent or control-treated CF-HBE cells are loaded onto a TECC24 apparatus (TECC v7 or MTECC v2; EP Design) to record the transepithelial voltage (VT) and resistance (TEER) using 4 AgCl electrodes per well configured in current-clamp mode. The apical and basolateral bath solutions both contain (in mM) 140 NaCl, 5 KCl, 2 CaCl2, 1 MgCl2, 10 Hepes, and 10 glucose (adjusted to pH 7.4 with NaOH). To inhibit basal Na+ absorption, the ENaC inhibitor benzamil (10 μM) is added to the bath. Then, the adenylate cyclase activator, forskolin (10 μM), is added to the bath to activate CFTR. The forskolin-stimulated Cl— transport is halted by addition of CFTR inhibitor-172 (20 μM) to the bath at the end of the experiment to confirm specificity. VT and TEER recordings are digitally acquired at routine intervals using TECC or MTECC software (EP Design). VT and TEER are transformed into equivalent transepithelial Cl— current (IEQ), and the Area Under the Curve (AUC) of the IEQ time course between forskolin and CFTR inhibitor-172 addition is generated using Excel (Microsoft). Efficacy is expressed as the ratio of the test agent AUC divided by vehicle AUC. EC50s based on AUC are generated using the non-linear regression log(agonist) vs. response function in Prism software (Graphpad) with HillSlope fixed=1.
If a test agent increases the AUC of the forskolin-stimulated IEQ relative to vehicle in CF-HBE cells, and this increase is inhibited by CFTR inhibitor-172, then the test agent is considered a CFTR corrector. TECC assay efficacy is expressed as the ratio of the test agent AUC divided by DMSO vehicle AUC. As set forth in Table 2 below, a TECC value less than 12 is marked “A”; a value between 12-20 is marked “B”; a value between 20 and 80 is marked “C”. […]

T1 sequence (P13569 423-646 limits assumed): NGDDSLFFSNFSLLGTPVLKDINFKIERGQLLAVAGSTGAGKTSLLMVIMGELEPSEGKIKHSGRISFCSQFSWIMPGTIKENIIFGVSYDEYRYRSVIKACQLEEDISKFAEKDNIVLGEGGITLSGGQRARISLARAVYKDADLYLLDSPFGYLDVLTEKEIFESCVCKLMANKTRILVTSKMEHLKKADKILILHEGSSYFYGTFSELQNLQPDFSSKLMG
T2 sequence (P13569 with tags, fused parts or gaps DEL508-508): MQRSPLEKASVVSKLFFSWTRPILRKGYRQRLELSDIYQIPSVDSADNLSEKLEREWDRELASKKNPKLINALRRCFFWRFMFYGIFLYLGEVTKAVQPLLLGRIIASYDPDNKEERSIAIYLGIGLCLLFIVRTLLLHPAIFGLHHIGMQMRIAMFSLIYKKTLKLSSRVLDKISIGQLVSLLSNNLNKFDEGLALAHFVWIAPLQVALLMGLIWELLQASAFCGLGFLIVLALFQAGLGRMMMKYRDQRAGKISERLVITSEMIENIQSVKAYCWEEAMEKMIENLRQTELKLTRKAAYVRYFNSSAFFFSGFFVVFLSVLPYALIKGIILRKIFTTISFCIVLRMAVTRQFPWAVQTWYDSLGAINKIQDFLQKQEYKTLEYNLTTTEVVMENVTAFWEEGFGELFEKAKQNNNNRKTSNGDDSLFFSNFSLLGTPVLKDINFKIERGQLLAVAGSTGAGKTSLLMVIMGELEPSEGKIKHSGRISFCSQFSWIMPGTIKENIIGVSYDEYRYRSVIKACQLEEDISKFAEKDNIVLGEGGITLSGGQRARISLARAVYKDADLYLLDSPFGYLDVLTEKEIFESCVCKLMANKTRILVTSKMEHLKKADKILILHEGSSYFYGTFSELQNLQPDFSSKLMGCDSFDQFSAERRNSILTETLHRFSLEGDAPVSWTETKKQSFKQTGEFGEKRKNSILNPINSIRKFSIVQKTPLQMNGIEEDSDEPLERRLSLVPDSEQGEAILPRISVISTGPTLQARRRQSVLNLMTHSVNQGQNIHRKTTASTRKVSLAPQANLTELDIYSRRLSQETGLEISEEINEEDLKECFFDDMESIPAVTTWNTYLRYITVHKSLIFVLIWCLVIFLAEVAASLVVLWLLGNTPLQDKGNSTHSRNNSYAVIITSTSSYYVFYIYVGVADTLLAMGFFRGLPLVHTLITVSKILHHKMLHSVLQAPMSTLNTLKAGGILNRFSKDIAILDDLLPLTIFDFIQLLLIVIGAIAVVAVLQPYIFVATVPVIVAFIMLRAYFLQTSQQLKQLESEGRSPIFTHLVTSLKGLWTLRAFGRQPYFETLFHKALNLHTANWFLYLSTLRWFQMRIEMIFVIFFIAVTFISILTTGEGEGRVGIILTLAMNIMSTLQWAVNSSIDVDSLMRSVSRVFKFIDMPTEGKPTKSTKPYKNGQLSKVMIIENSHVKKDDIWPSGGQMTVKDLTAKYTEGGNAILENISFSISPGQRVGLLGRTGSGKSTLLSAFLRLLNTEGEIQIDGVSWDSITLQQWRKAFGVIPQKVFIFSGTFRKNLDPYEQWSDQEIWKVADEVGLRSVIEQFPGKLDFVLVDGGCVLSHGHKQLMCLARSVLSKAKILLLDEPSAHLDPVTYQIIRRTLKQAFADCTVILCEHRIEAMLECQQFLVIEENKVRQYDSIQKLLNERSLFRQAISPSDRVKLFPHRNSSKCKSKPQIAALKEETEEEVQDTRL

Take `C[C@@H](Cc1cccc([C@@]2(C)CCCC(C)(C)CS(=O)(=O)CCc3c(c(F)cc4[nH]ccc34)Oc3ccnc(c3)-c3nc2nn3C)c1)C(=O)O` (mixture of isomers) [Compound 201, (2S)-3-[3-[(6R)-22-Fluoro-3,6,10,10-tetramethyl-12,12-dioxo-24-oxa-12λ6-thia-3,4,19,28,30-pentazapentacyclo[23.3.1.12,5.015,23.016,20]triaconta-1(29),2(30),4,15,17,20,22,25,27-nonaen-6-yl]phenyl]-2-methyl-propanoic Acid]: the “DSLS 3D (100 μM ΔT)” value on NBD1 was “C (a value greater than 10 °C and less than or equal to 25 °C is marked “C”)”. Moreover, the “TECC (AUC, 10 μM)” value on CFTR is “B (a value between 12-20 is marked “B”)”.

Take `CC(CC(=O)O)c1cccc([C@@]2(C)CCCC(C)(C)CS(=O)(=O)CCc3c(c(F)cc4[nH]ccc34)[S+]([O-])c3ccc(F)c(c3)-c3nc2nn3C)c1` (mixture of isomers) [Compound 217A, 3-[3-[(6R)-22,28-difluoro-3,6,10,10-tetramethyl-12,12,24-trioxo-12λ6,24λ4-dithia-3,4,19,30-tetrazapentacyclo[23.3.1.12,5.015,23.016,20]triaconta-1(29),2(30),4,15,17,20,22,25,27-nonaen-6-yl]phenyl]butanoic Acid]: the “DSLS 3D (100 μM ΔT)” value at NBD1 was “B (a value above 5 °C and less than or equal to 10 °C is marked “B”)”. Further, the “TECC (AUC, 10 μM)” value at CFTR was “A (a TECC value less than 12 is marked “A”)”.

With `CC(CC(=O)O)c1cccc([C@@]2(C)CCCC(C)(C)CS(=O)(=O)CCc3c(c(F)cc4[nH]ccc34)[S+]([O-])c3ccc(F)c(c3)-c3nc2nn3C)c1` (mixture of isomers) [Compound 217B, 3-[3-[(6R)-22,28-difluoro-3,6,10,10-tetramethyl-12,12,24-trioxo-12λ6,24λ4-dithia-3,4,19,30-tetrazapentacyclo[23.3.1.12,5.015,23.016,20]triaconta-1(29),2(30),4,15,17,20,22,25,27-nonaen-6-yl]phenyl]butanoic Acid], the “DSLS 3D (100 μM ΔT)” value at NBD1 is “C (a value greater than 10 °C and less than or equal to 25 °C is marked “C”)”. Also, on CFTR, the “TECC (AUC, 10 μM)” value is “C (a value between 20 and 80 is marked “C”)”.

For `CC(O)Cn1nc2nc1-c1cc(ccc1F)Oc1c(F)cc3[nH]ccc3c1CCS(=O)(=O)CC(C)(C)CCC[C@]2(C)c1cccc(C[C@@H](C)C(=O)O)c1` (mixture of isomers) [Compound 219, (2R)-3-[3-[(6R)-22,28-Difluoro-3-(2-hydroxypropyl)-6,10,10-trimethyl-12,12-dioxo-24-oxa-12λ6-thia-3,4,19,30-tetrazapentacyclo[23.3.1.12,5.015,23.016,20]triaconta-1(29),2(30),4,15,17,20,22,25,27-nonaen-6-yl]phenyl]-2-methyl-propanoic acid], the “DSLS 3D (100 μM ΔT)” value on NBD1 was “C (a value greater than 10 °C and less than or equal to 25 °C is marked “C”)”. The “TECC (AUC, 10 μM)” value at CFTR was “C (a value between 20 and 80 is marked “C”)”.

Take `C[C@H](Cc1cccc(C2(C)CCCC(C)(C)CS(=O)(=O)CCc3c(c(F)cc4[nH]ccc34)Oc3ccc(F)c(c3)-c3ccn2n3)c1)C(=O)O` (mixture of isomers) [Compound 230, (2R)-3-[3-(22,28-difluoro-6,10,10-trimethyl-12,12-dioxo-24-oxa-12λ6-thia-5,19,30-triazapentacyclo[23.3.1.12,5.015,23.016,20]triaconta-1(29),2(30),3,15,17,20,22,25,27-nonaen-6-yl)phenyl]-2-methyl-propanoic Acid]: the “DSLS 3D (100 μM ΔT)” value at NBD1 is “C (a value greater than 10 °C and less than or equal to 25 °C is marked “C”)”. Also, the “TECC (AUC, 10 μM)” value on CFTR was “C (a value between 20 and 80 is marked “C”)”.

Consider `C[C@H](Cc1cccc(C2(C)CCCC(C)(C)CS(=O)(=O)CCc3c(c(F)cc4[nH]ccc34)Oc3ccc(F)c(c3)-c3nc2nn3C)c1)C(=O)OCCN1CCN(C)CC1` (single isomer, unassigned) [Compound 182], for which the “TECC (AUC, 10 μM)” value at CFTR is given as “A (a TECC value less than 12 is marked “A”)”.

Take `Cn1nc2nc1-c1cc(ccc1F)[S+]([O-])c1c(F)cc3[nH]ccc3c1CCS(=O)(=O)CC(C)(C)CCCC2(C)c1cccc(/C=C/C(=O)O)c1` (single isomer, unassigned) [Compound 210A, (E)-3-[3-(22,28-difluoro-3,6,10,10-tetramethyl-12,12,24-trioxo-12λ6,24λ4-dithia-3,4,19,30-tetrazapentacyclo[23.3.1.12,5.015,23.016,20]triaconta-1(29),2(30),4,15,17,20,22,25,27-nonaen-6-yl)phenyl]prop-2-enoic Acid]: at CFTR, the “TECC (AUC, 10 μM)” value is “C (a value between 20 and 80 is marked “C”)”.

With `Cn1nc2nc1-c1cc(ccc1F)[S+]([O-])c1c(F)cc3[nH]ccc3c1CCS(=O)(=O)CC(C)(C)CCCC2(C)c1cccc(/C=C/C(=O)O)c1` (single isomer, unassigned) [Compound 210B, (E)-3-[3-(22,28-difluoro-3,6,10,10-tetramethyl-12,12,24-trioxo-12λ6,24λ4-dithia-3,4,19,30-tetrazapentacyclo[23.3.1.12,5.015,23.016,20]triaconta-1(29),2(30),4,15,17,20,22,25,27-nonaen-6-yl)phenyl]prop-2-enoic Acid], on CFTR, the “TECC (AUC, 10 μM)” value is recorded as “A (a TECC value less than 12 is marked “A”)”.

With `Cn1nc2nc1-c1cc(ccc1F)[S+]([O-])c1c(F)cc3[nH]ccc3c1CCS(=O)(=O)CC(C)(C)CCCC2(C)c1cccc(/C=C/C(=O)O)c1` (single isomer, unassigned) [Compound 210C, (E)-3-[3-(22,28-difluoro-3,6,10,10-tetramethyl-12,12,24-trioxo-12λ6,24λ4-dithia-3,4,19,30-tetrazapentacyclo[23.3.1.12,5.015,23.016,20]triaconta-1(29),2(30),4,15,17,20,22,25,27-nonaen-6-yl)phenyl]prop-2-enoic Acid], at CFTR, the “TECC (AUC, 10 μM)” value is “B (a value between 12-20 is marked “B”)”.

Turning to `Cn1nc2nc1-c1cc(ccc1F)[S+]([O-])c1c(F)cc3[nH]ccc3c1CCS(=O)(=O)CC(C)(C)CCCC2(C)c1cccc(/C=C/C(=O)O)c1` (single isomer, unassigned) [Compound 210D, (E)-3-[3-(22,28-difluoro-3,6,10,10-tetramethyl-12,12,24-trioxo-12λ6,24λ4-dithia-3,4,19,30-tetrazapentacyclo[23.3.1.12,5.015,23.016,20]triaconta-1(29),2(30),4,15,17,20,22,25,27-nonaen-6-yl)phenyl]prop-2-enoic Acid], the “TECC (AUC, 10 μM)” value at CFTR is “C (a value between 20 and 80 is marked “C”)”.

In the case of `Cc1onc(NC(=O)[C@H](C)Cc2cccc([C@@]3(C)CCCC(C)(C)CS(=O)(=O)CCc4c(c(F)c(F)c5[nH]ccc45)Oc4ccc(F)c(c4)-c4nc3nn4C)c2)c1C` [Compound 384, (2R)—N-(4,5-Dimethylisoxazol-3-yl)-2-methyl-3-[3-[(6R)-21,22,28-trifluoro-3,6,10,10-tetramethyl-12,12-dioxo-24-oxa-12λ6-thia-3,4,19,30-tetrazapentacyclo[23.3.1.12,5.015,23.016,20]triaconta-1(29),2(30),4,15,17,20,22,25,27-nonaen-6-yl]phenyl]propenamide], the “DSLS 3D (100 μM ΔT)” value at NBD1 was “A (an ΔTagg value less than or equal to 5 °C is marked “A”)”.
